Experimental findings from patent US20070078172A1, “MAO-B INHIBITORS USEFUL FOR TREATING OBESITY” (JENRIN DISCOVERY, priority 2005, published 2007) are described below.

Data set [1] in a line: Body weight and food intake in rats dosed for 14 weeks. The data set is classed as in vivo, rat. As to the method:
(§1) Single-housed rats weighing 230-350 grams at the start of the experiment were provided free access to laboratory rodent chow pellets and tap water. Rats were divided into two groups, eight rats per group, matched for food intake and body weight over a two week baseline period. […] The second group of rats (control rats) was similarly administered drug vehicle (0.25% methyl cellulose solution). Body weight and food intake were measured once a week for 14 weeks.

Data set [2] can be described thus: Terminal carcass composition (lipid, water, fat free dry weight). The format is in vivo, rat. To be noted: 10.0 mg/kg orally once daily. As to the method: as §1
Terminal carcass composition was measured. Shaved, eviscerated rats were coarsely ground and dried to a constant weight at 70° C. Dehydrated carcasses were finely ground in a blender. Lipid was extracted from a homogeneous sample with petroleum ether. Water and lipid contents were determined gravimetrically, and the remaining carcass component was termed fat free dry weight.

In a further data set the test system is Plasma leptin. Description: Plasma leptin levels by commercial radioimmunoassay kit. The format is in vivo, rat. To be noted: rats, 10.0 mg/kg orally once daily, end of 14 week study, vs control. On the procedure: as §1
At the end of the experiment, rats were killed by exposure to carbon dioxide. Blood was collected by cardiac puncture, and rats were shaved and eviscerated. Retroperitoneal white adipose tissue, epidydimal white adipose tissue, adrenal gland, liver, kidney and testes were rapidly dissected and weighed. Plasma leptin levels were measured using a commercial radioimmunoassay kit.

The nature of data set [3]: Terminal tissue and organ weights (fat pads, adrenal gland, liver, kidney, testes). Particulars: 10.0 mg/kg orally once daily, end of 14 week study.

For `C#CCN(C)[C@H](C)Cc1ccccc1` [L-selegiline], the “lower weight gain compared to control rats” value in data set [1] (10.0 mg/kg L-selegiline hydrochloride orally by gavage once daily, 14 week study) stood at 14%. The “weight gain less than untreated counterparts” value in data set [1] (10.0 mg/kg orally once daily, 14 week study) is recorded as “approximately 34 g”. In addition, the “food intake versus control group” value in data set [1] (10.0 mg/kg orally once daily, 14 weeks) is recorded as “comparable”. For the same compound, the “adipose tissue gain less than that of untreated control rats” value in data set [2] (14 weeks) was found to be 94%. Moreover, the “share of the overall 34 gram weight loss accounted for by body fat reduction” value in data set [2] (rats, 14 weeks) worked out at 94%. In addition, in data set [2] (rats, terminal carcass), the lean body mass result was “no reduction” and the “whole carcass water content” value is “no reduction”. Further, the “plasma leptin levels reduced” value in the data set on Plasma leptin is on record as 41%. Also, in data set [3], the “epidydimal fat pad weighed less than in control rats” value is 23% and the “retroperitoneal fat pad weighed less than in control rats” value was 27%. Moreover, in data set [3] (rats), the “weight of non-fat organs (adrenal gland, liver, kidney, testes)” value is listed as “did not weigh less”.
